Measured values published in patent US20040229772A1, “Peptides responsive to antibodies against consensus peptide of the CS4-CFA/I family proteins” (priority 1996, published 2004).
No end group written: not given here.

Assays:
[1] = tested on: antibodies raised to the consensus peptide; test: ELISA of 8-mer peptides with rabbit antibodies; assay type: binding; settings: for interaction of peptides with the antibodies raised to the consensus peptide: rabbit antibodies raised to consensus peptide SEQ ID NO:1; for reactivity of 8-mer peptides with antibodies from the rabbits: rabbit antibodies raised to consensus peptide SEQ ID NO:1, biotin-SGSG-peptide on streptavidin
Method: (§1) Blocks of pins for cleavable syntheses were obtained from Chiron Mimotopes U.S. Peptide synthesis was carried out according to the manufacturer's instructions using Opfp-derivatized amino acids. Peptides of length 8 with 7 overlap were manufactured in order to locate all linear epitopes in the sequence with a highest redundancy. […] Peptides were cleaved from the pins using 0.1 M phosphate buffer, pH 8.0, containing 40% acetonitrile. Two peptides were made and sacrificed for amino acid analysis as proof of peptide purity. A dinitrophenol (DNP) pin was included so that the efficiency of the cleavage could be monitored spectrophotometrically.
(§2) For blocking, a composition containing 5% nonfat dry milk in PBS+0.2% sodium azide was used. Stock streptavidin (Calbiochem Corp., La Jolla, Calif.) at 1 mg/ml in water was kept frozen in aliquots for up to several months. On the day of use, the stock streptavidin was diluted in phosphate buffered saline (PBS) to provide a concentration of 5 μg/ml streptavidin. Goat F(ab′)2 anti-mouse, anti-rabbit and anti-human sera were labeled with alkaline phosphatase (Biosource, International, Camarillo, Calif.).
(§3) Streptavidin was plated at 5 μg/ml, 50 μl per well, and incubated over night at 4° C. Plates were then washed by hand (Nunc Immunowash 12 hand plate washer. Fisher Scientific, Pittsburgh, Pa.) three times with PBS/0.1% TWEEN 20™. Peptides were then diluted to 10 μg/ml in PBS and plated at 50-μl/well. After incubation for one hour at room temperature followed by washing, the peptides were incubated with sera diluted in blocker at appropriate concentrations (5% nonfat dry milk) for 2 hours at room temperature. After washing the wells, 50 μl of phosphatase-labeled anti-serum IgG diluted 1:1000 in blocker was added to each well and was allowed to incubate at room temperature for 1 hour. The plates were washed. The 100 μl of PNDP (p-nitrophenylphosphate) substrate, prepared according to the manufacturer's instructions, was added to each well. Results were read at 5, 15 and 60 minutes using a microtiter plate reader (UVmax™, Moelcular Devices, Sunnyvale, Calif.).
Antibodies from the rabbits were then tested against the specific 8-mer peptides obtained from SEQ ID NO:1 in the manner disclosed above to determine the binding sites of the antibodies in the sera with the consensus peptide.

[2] = tested on: Antibody to 0166 lower; test: ELISA of 8-mer peptides (pins) with rabbit serum; assay type: binding
Method: as §1, §2, §3
(§4) Partially to fully purified colonization factor (40% to 100% pure) was run on SDS-PAGE gel (5-15 μg/lane of 10 comb gel (precast 10 comb, 1 mm thickness, Tris-tricene gel from Novex, San Diego, Calif.), for primary immunization run 9 lanes for each rabbit (45-135 μg CF protein with ½ the amount used in the primary immunization used as a booster). The gel was stained with 0.5% COOMASSIE BLUE™ (BioRad, Richmond, Calif.) in water for 1 hour, then destained with multiple changes of water for 60-90 minutes. The colonization factor bands were excised with a scalpel and the excess gel trimmed. The bands were stored at −20° C. until use.
(§5) After removal from freezer, the gel slices were transferred to a glass tissue homogenizer using a teflon pestle with grooves at the tip. The slices were ground with 0.3 ml phosphate buffered saline (PBS). The drill was run to homogenize the gel for 30 to 45 seconds. (In the instant case, a pestle with a shaft of steel was used which allowed placement of the pestle into the chuck of the hand-held drill.)
(§6) The homogenate was transferred to 16 mm×150 mm test tubes with disposable plastic transfer pipet. The pestle and homogenizer vessel was rinsed repeatedly with PBS and the contents transferred to the 16×150 test tube until a volume of 1.2 ml was obtained.
(§7) The sample obtained above was placed in a vortex mixer and vortexed on high. Freund's adjuvant 1.2 ml was added. (Complete Freund's was used for the primary immunization, while incomplete Freund's was used for the boost.) The composition was vortexed until a thick emulsion of almost a butter consistency was obtained (12-20 minutes).
(§8) A preimmune serum was obtained on all animals, which were then immunized with the 1 ml of the emulsion subcutaneously at 4-6 spots on the shoulders and rump. The animals were boosted three weeks later, then bleed 10 days after the booster shots. […]

[3] = tested on: Antibody to 0166 upper; test: ELISA of 8-mer peptides (pins) with rabbit serum; assay type: binding
Method: as §1, §2, §3, §4, §5, §6, §7, §8

[4] = tested on: Antibody to CFA/I; test: ELISA of 8-mer peptides (pins) with rabbit serum; assay type: binding
Method: as §1, §2, §3, §4, §5, §6, §7, §8

[5] = tested on: Antibody to CS1; test: ELISA of 8-mer peptides (pins) with rabbit serum; assay type: binding; settings: a listed pin number means recognized
Method: as §1, §2, §3, §4, §5, §6, §7, §8

[6] = tested on: Antibody to CS4; test: ELISA of 8-mer peptides (pins) with rabbit serum; assay type: binding; settings: a listed pin number means recognized
Method: as §1, §2, §3, §4, §5, §6, §7, §8

[7] = tested on: Antibody to CS2; test: ELISA of 8-mer peptides (pins) with rabbit serum; assay type: binding; settings: a listed pin number means recognized
Method: as §1, §2, §3, §4, §5, §6, §7, §8

[8] = tested on: 0166; test: Western blot of immune serum with denatured protein; assay type: binding, E. coli; settings: 4 strong reaction, rabbit serum
Method: (§9) Rabbits were bled, then immunized on day 0 with a composition containing 280 μg peptide/BSA conjugate in Freund's complete adjuvant. On day 21, the animals were boosted with 140 μg peptide/BSA conjugate in Freund's incomplete adjuvant. Blood was drawn on day 32. The interaction of antibodies raised against the specific antigens of the denatured proteins of the various strains was studied by comparing interaction of serum from the animals obtained on day 0 with response on to serum from the animals obtained on day 32 by Western blot. In all instances, the Western blot was negative for reaction with serum obtained on day 0. The Western blot data on interaction of immune serum collected on day 32 with the denatured proteins is given below with 0 being no reaction and 4 being a strong reaction:
(§10) Rabbits were given a composition containing 400 μg peptide of the formula: […] (SEQ ID NO:1) in complete Freund's adjuvant. The response was evaluated as in Example 2:
(§11) The same study was done comparing antibodies raised to denatured proteins of PCF 0166.
(§12) Effect of antibody raised to whole CS2 protein was studied in the manner of example 5.

[9] = tested on: CS17; test: as above; assay type: binding, E. coli; settings: 4 strong reaction, rabbit serum
Method: as §9, §10, §11, §12

[10] = tested on: CS1; test: as above; assay type: binding, E. coli; settings: 4 strong reaction, rabbit serum
Method: as §9, §10, §11, §12

[11] = tested on: CS4; test: as above; assay type: binding, E. coli; settings: 4 strong reaction, rabbit serum
Method: as §9, §10, §11, §12

[12] = tested on: whole bacteria, CF CS1; test: Agglutination of whole bacteria by serum of immunized rabbits; assay type: cell-based, E. coli; settings: two rabbits immunized per preparation
[13] = tested on: whole bacteria, CF CS2; test: as above; assay type: cell-based, E. coli; settings: two rabbits immunized per preparation
[14] = tested on: whole bacteria, CF CS4; test: as above; assay type: cell-based, E. coli; settings: two rabbits immunized per preparation
[15] = tested on: whole bacteria, CF CS17; test: as above; assay type: cell-based, E. coli; settings: two rabbits immunized per preparation
[16] = tested on: whole bacteria, CF 0166; test: as above; assay type: cell-based, E. coli; settings: two rabbits immunized per preparation
[17] = tested on: whole bacteria, CF CFA/1; test: as above; assay type: cell-based, E. coli; settings: two rabbits immunized per preparation
[18] = tested on: CFA/I; test: Western blot of immune serum with denatured protein; assay type: binding, E. coli; settings: 4 strong reaction, rabbit serum
Method: as §9, §10, §11, §12

[19] = tested on: CS2; test: as above; assay type: binding, E. coli; settings: 4 strong reaction, rabbit serum
Method: as §9, §10, §11, §12

[20] = rabbit 1082, a listed pin number means recognized
[21] = rabbit 1081, a listed pin number means recognized
[22] = rabbit 1079, a listed pin number means recognized

Row | Substance | interaction of peptides with the antibodies raised to the consensus peptide [1] | reactivity of 8-mer peptides with antibodies from the rabbits [1] | pins (8-aa peptide) recognized by serum [2, 20] | pins (8-aa peptide) recognized by serum [3, 21] | pins (8-aa peptide) recognized by serum [4, 22] | pins (8-aa peptide) recognized by serum ([5]; Antibody to CS1, rabbit 1089) | pins (8-aa peptide) recognized by serum ([5]; Antibody to CS1, rabbit 1090) | pins (8-aa peptide) recognized by serum ([6]; Antibody to CS4, rabbit 938) | pins (8-aa peptide) recognized by serum ([6]; Antibody to CS4, rabbit 940) | Western blot reaction of immune serum with denatured protein ([8]; titer 1:50, 0 no reaction) | Western blot reaction of immune serum with denatured protein ([8]; titer 1:500, 0 no reaction) | Western blot reaction of immune serum with denatured protein ([9]; titer 1:50, 0 no reaction) | Western blot reaction of immune serum with denatured protein ([9]; titer 1:500, 0 no reaction) | Western blot reaction of immune serum with denatured protein ([9]; titer 1:5000, 0 no reaction) | Western blot reaction of immune serum with denatured protein ([9]; titer 1:50000, 0 no reaction) | Western blot reaction of immune serum with denatured protein ([10]; titer 1:50, 0 no reaction) | Western blot reaction of immune serum with denatured protein ([10]; titer 1:500, 0 no reaction) | Western blot reaction of immune serum with denatured protein ([10]; titer 1:5000, 0 no reaction) | Western blot reaction of immune serum with denatured protein ([10]; titer 1:50000, 0 no reaction) | Western blot reaction of immune serum with denatured protein ([11]; titer 1:50, 0 no reaction) | other results
1 | PTIDLLQA (listed as Escherichia coli) [compound 13] | more reliably interactive | most reactive | 13 | 13 | 13 | 13 | 13 | 13 | 13 |  |  |  |  |  |  |  |  |  |  |  | pins (8-aa peptide) recognized by serum ([2]; rabbit 1083, a listed pin number means recognized): 13; pins (8-aa peptide) recognized by serum ([3]; rabbit 934, a listed pin number means recognized): 13; pins (8-aa peptide) recognized by serum ([4]; rabbit 1078, a listed pin number means recognized): 13
2 | VDPTIDLL (listed as Escherichia coli) [compound 11] | more reliably interactive | most reactive | 11 | 11 | 11 | 11 | 11 | 11 | 11 |  |  |  |  |  |  |  |  |  |  |  | pins (8-aa peptide) recognized by serum ([7]; Antibody to CS2, rabbit 1076): 11; pins (8-aa peptide) recognized by serum ([7]; Antibody to CS2, rabbit 1077): 11
3 | VEKNITVTASVDPTIDLLQADGSALPSAVALTYSPA (listed as Escherichia coli) [SEQ ID NO:1, 36 amino acid consensus peptide of the CS4-CFA/I family] |  |  |  |  |  |  |  |  |  | 4 | 2 | 2 | 0 | 0 | 0 | 4 | 4 | 2 | 1 | 2 | Western blot reaction of immune serum with denatured protein ([11]; titer 1:500, 0 no reaction): 0; Western blot reaction of immune serum with denatured protein ([11]; titer 1:5000, 0 no reaction): 0; Western blot reaction of immune serum with denatured protein ([11]; titer 1:50000, 0 no reaction): 0; agglutination of whole bacteria by serum [12]: 0/2; agglutination of whole bacteria by serum [13]: 0/2; agglutination of whole bacteria by serum [14]: 0/2; agglutination of whole bacteria by serum [15]: 0/2; agglutination of whole bacteria by serum [16]: 0/2; agglutination of whole bacteria by serum [17]: 0/2
4 | peptide/BSA conjugate: consensus peptide with added terminal cysteine (SEQ ID NO:37) conjugated to iodoacetylated bovine serum albumin (CVEKNITVTASVDPTIDLLQADGSALPSAVALTYSPA; also: conjugated via added terminal Cys to iodoacetylated BSA; listed as Escherichia coli) |  |  |  |  |  |  |  |  |  | 4 | 1 | 4 | 3 | 2 | 0.5 | 4 | 4 | 4 | 4 | 4 | Western blot reaction of immune serum with denatured protein ([8]; titer 1:5000, 0 no reaction): 3; Western blot reaction of immune serum with denatured protein ([18]; titer 1:50, 0 no reaction): 4; Western blot reaction of immune serum with denatured protein ([18]; titer 1:500, 0 no reaction): 3; Western blot reaction of immune serum with denatured protein ([18]; titer 1:5000, 0 no reaction): 2; Western blot reaction of immune serum with denatured protein ([19]; titer 1:50, 0 no reaction): 4; Western blot reaction of immune serum with denatured protein ([19]; titer 1:500, 0 no reaction): 4; Western blot reaction of immune serum with denatured protein ([19]; titer 1:5000, 0 no reaction): 4; Western blot reaction of immune serum with denatured protein ([11]; titer 1:500, 0 no reaction): 4; Western blot reaction of immune serum with denatured protein ([11]; titer 1:5000, 0 no reaction): 3; Western blot reaction of immune serum with denatured protein ([11]; titer 1:50000, 0 no reaction): 2; agglutination of whole bacteria by serum [12]: 1/2; agglutination of whole bacteria by serum [13]: 2/2; agglutination of whole bacteria by serum [14]: 0/2; agglutination of whole bacteria by serum [15]: 0/2; agglutination of whole bacteria by serum [16]: 1/2; agglutination of whole bacteria by serum [17]: 1/2
